Measurements: patent publication US20250186405A1, “Compound For Use In Treating Narcolepsy” (Alkermes, Inc., priority 2023, published 2025)

System: subjects with idiopathic hypersomnia (IH)
Assay: Part 6 POC IH: treatment-emergent adverse events, single doses, crossover
Conditions: N = 8
Method: Part 6 consisted of a 4-way, 4-period crossover study design in approximately 8 subjects (2 subjects per sequence; minimum of 4 subjects with 1 subject per sequence). […] Treatments were administered under fasted state.
Subjects were randomized to 1 of 4 sequences. […] No food was given for at least 3 hours after dose administration (i.e., fast can be broken after the 3-hour PK time point is collected). Water was allowed ad libitum except for 1 hour before and 1 hour after study drug administration. Safety assessments including AEs, safety ECGs, vital signs, and clinical laboratory tests were conducted, and plasma PK samples were collected.
Adverse events (AEs) and serious adverse events (SAEs) were monitored continuously until the completion of the study.
Eight subjects with IH were dosed in Part 6 (POC in IH) in a randomized 4-sequence 4-period cross-over design.

CS(=O)(=O)N[C@H]1CCCN2C(=O)COc3ccccc3C3CCC(CC3)OCC12 (stereo partly drawn) [Compound A, N-[(4S,4aR,7α,10α)-1,2,3,4,4a,5,7,8,9,10,16,17-dodecahydro-17-oxo-7,10-ethanopyrido[1,2-d][1,7,4]benzodioxaazacyclotridecin-4-yl]methanesulfonamide]
AE Leading to Study Drug Discontinuation (5 mg single dose): 0 n (%) | Any SAEs (5 mg single dose): 0 n (%) | Any TEAE (5 mg single dose): 6 (75.0) n (%) | Death (5 mg single dose): 0 n (%) | Drug Related TEAE by Preferred Term: Cold sweat (5 mg single dose): 0 n (%) | Drug Related TEAE by Preferred Term: Dizziness (5 mg single dose): 0 n (%) | Drug Related TEAE by Preferred Term: Dysuria (5 mg single dose): 0 n (%) | Drug Related TEAE by Preferred Term: Feeling jittery (5 mg single dose): 0 n (%) | Drug Related TEAE by Preferred Term: Insomnia (5 mg single dose): 0 n (%) | Drug Related TEAE by Preferred Term: Micturition urgency (5 mg single dose): 1 (12.5) n (%) | Drug Related TEAE by Preferred Term: Middle insomnia (5 mg single dose): 1 (12.5) n (%) | Drug Related TEAE by Preferred Term: Palpitations (5 mg single dose): 0 n (%) | Drug Related TEAE by Preferred Term: Pollakiuria (5 mg single dose): 2 (25.0) n (%) | Drug Related TEAE by Preferred Term: Supraventricular extrasystoles (5 mg single dose): 0 n (%) | Drug Related TEAE by Preferred Term: Tachycardia (5 mg single dose): 0 n (%) | Drug Related TEAE by Preferred Term: Visual impairment (5 mg single dose): 0 n (%) | Subjects with at least one TEAE (5 mg single dose): 6 (75.0) n (%) | Subjects with at least one treatment-related TEAE (5 mg single dose): 2 (25.0) n (%) | TEAE by Highest Relationship: Not Related (5 mg single dose): 4 (50.0) n (%) | TEAE by Highest Relationship: Related (5 mg single dose): 2 (25.0) n (%) | TEAE by Highest Severity: Mild (5 mg single dose): 6 (75.0) n (%) | TEAE by Highest Severity: Moderate (5 mg single dose): 0 n (%) | TEAE by Highest Severity: Severe (5 mg single dose): 0 n (%) | TEAE by Preferred Term: Blood creatine phosphokinase increased (5 mg single dose): 0 n (%) | TEAE by Preferred Term: Blood creatinine increased (5 mg single dose): 0 n (%) | TEAE by Preferred Term: Cold sweat (5 mg single dose): 0 n (%) | TEAE by Preferred Term: Dermatitis contact (5 mg single dose): 0 n (%) | TEAE by Preferred Term: Dizziness (5 mg single dose): 2 (25.0) n (%) | TEAE by Preferred Term: Dysuria (5 mg single dose): 0 n (%) | TEAE by Preferred Term: Epistaxis (5 mg single dose): 0 n (%) | TEAE by Preferred Term: Feeling jittery (5 mg single dose): 0 n (%) | TEAE by Preferred Term: Headache (5 mg single dose): 1 (12.5) n (%) | TEAE by Preferred Term: Insomnia (5 mg single dose): 0 n (%) | TEAE by Preferred Term: Micturition urgency (5 mg single dose): 1 (12.5) n (%) | TEAE by Preferred Term: Middle insomnia (5 mg single dose): 1 (12.5) n (%) | TEAE by Preferred Term: Nausea (5 mg single dose): 1 (12.5) n (%) | TEAE by Preferred Term: Neck pain (5 mg single dose): 1 (12.5) n (%) | TEAE by Preferred Term: Palpitations (5 mg single dose): 0 n (%) | TEAE by Preferred Term: Phlebitis (5 mg single dose): 0 n (%) | TEAE by Preferred Term: Pollakiuria (5 mg single dose): 2 (25.0) n (%) | TEAE by Preferred Term: Presyncope (5 mg single dose): 0 n (%) | TEAE by Preferred Term: Skin irritation (5 mg single dose): 1 (12.5) n (%) | TEAE by Preferred Term: Steatorrhoea (5 mg single dose): 0 n (%) | TEAE by Preferred Term: Supraventricular extrasystoles (5 mg single dose): 0 n (%) | TEAE by Preferred Term: Tachycardia (5 mg single dose): 0 n (%) | TEAE by Preferred Term: Urinary tract infection (5 mg single dose): 1 (12.5) n (%) | TEAE by Preferred Term: Vessel puncture site bruise (5 mg single dose): 2 (25.0) n (%) | TEAE by Preferred Term: Vessel puncture site pain (5 mg single dose): 0 n (%) | TEAE by Preferred Term: Visual impairment (5 mg single dose): 0 n (%) | TEAE by Preferred Term: Vomiting (5 mg single dose): 0 n (%) | AE Leading to Study Drug Discontinuation (12 mg single dose): 0 n (%) | Any SAEs (12 mg single dose): 0 n (%) | Any TEAE (12 mg single dose): 5 (62.5) n (%) | Death (12 mg single dose): 0 n (%) | Drug Related TEAE by Preferred Term: Cold sweat (12 mg single dose): 0 n (%) | Drug Related TEAE by Preferred Term: Dizziness (12 mg single dose): 0 n (%) | Drug Related TEAE by Preferred Term: Dysuria (12 mg single dose): 1 (12.5) n (%) | Drug Related TEAE by Preferred Term: Feeling jittery (12 mg single dose): 0 n (%) | Drug Related TEAE by Preferred Term: Insomnia (12 mg single dose): 0 n (%) | Drug Related TEAE by Preferred Term: Micturition urgency (12 mg single dose): 0 n (%) | Drug Related TEAE by Preferred Term: Middle insomnia (12 mg single dose): 1 (12.5) n (%) | Drug Related TEAE by Preferred Term: Palpitations (12 mg single dose): 0 n (%) | Drug Related TEAE by Preferred Term: Pollakiuria (12 mg single dose): 2 (25.0) n (%) | Drug Related TEAE by Preferred Term: Supraventricular extrasystoles (12 mg single dose): 0 n (%) | Drug Related TEAE by Preferred Term: Tachycardia (12 mg single dose): 0 n (%) | Drug Related TEAE by Preferred Term: Visual impairment (12 mg single dose): 0 n (%) | Subjects with at least one TEAE (12 mg single dose): 5 (62.5) n (%) | Subjects with at least one treatment-related TEAE (12 mg single dose): 3 (37.5) n (%) | TEAE by Highest Relationship: Not Related (12 mg single dose): 2 (25.0) n (%) | TEAE by Highest Relationship: Related (12 mg single dose): 3 (37.5) n (%) | TEAE by Highest Severity: Mild (12 mg single dose): 5 (62.5) n (%) | TEAE by Highest Severity: Moderate (12 mg single dose): 0 n (%) | TEAE by Highest Severity: Severe (12 mg single dose): 0 n (%) | TEAE by Preferred Term: Blood creatine phosphokinase increased (12 mg single dose): 1 (12.5) n (%) | TEAE by Preferred Term: Blood creatinine increased (12 mg single dose): 1 (12.5) n (%) | TEAE by Preferred Term: Cold sweat (12 mg single dose): 0 n (%) | TEAE by Preferred Term: Dermatitis contact (12 mg single dose): 0 n (%) | TEAE by Preferred Term: Dizziness (12 mg single dose): 0 n (%) | TEAE by Preferred Term: Dysuria (12 mg single dose): 1 (12.5) n (%) | TEAE by Preferred Term: Epistaxis (12 mg single dose): 0 n (%) | TEAE by Preferred Term: Feeling jittery (12 mg single dose): 0 n (%) | TEAE by Preferred Term: Headache (12 mg single dose): 1 (12.5) n (%) | TEAE by Preferred Term: Insomnia (12 mg single dose): 0 n (%) | TEAE by Preferred Term: Micturition urgency (12 mg single dose): 0 n (%) | TEAE by Preferred Term: Middle insomnia (12 mg single dose): 1 (12.5) n (%) | TEAE by Preferred Term: Nausea (12 mg single dose): 1 (12.5) n (%) | TEAE by Preferred Term: Neck pain (12 mg single dose): 0 n (%) | TEAE by Preferred Term: Palpitations (12 mg single dose): 0 n (%) | TEAE by Preferred Term: Phlebitis (12 mg single dose): 1 (12.5) n (%) | TEAE by Preferred Term: Pollakiuria (12 mg single dose): 2 (25.0) n (%) | TEAE by Preferred Term: Presyncope (12 mg single dose): 1 (12.5) n (%) | TEAE by Preferred Term: Skin irritation (12 mg single dose): 0 n (%) | TEAE by Preferred Term: Steatorrhoea (12 mg single dose): 1 (12.5) n (%) | TEAE by Preferred Term: Supraventricular extrasystoles (12 mg single dose): 0 n (%) | TEAE by Preferred Term: Tachycardia (12 mg single dose): 0 n (%) | TEAE by Preferred Term: Urinary tract infection (12 mg single dose): 0 n (%) | TEAE by Preferred Term: Vessel puncture site bruise (12 mg single dose): 0 n (%) | TEAE by Preferred Term: Vessel puncture site pain (12 mg single dose): 0 n (%) | TEAE by Preferred Term: Visual impairment (12 mg single dose): 0 n (%) | TEAE by Preferred Term: Vomiting (12 mg single dose): 0 n (%) | AE Leading to Study Drug Discontinuation (25 mg single dose): 0 n (%)
